Test results as given in the NIST ThermoML archive (doi:10.1021/je025631i).
± gives the expanded uncertainty stated by the source.

Tests used:
[1] = refractive index (Na D-line) (dimensionless); settings: 293.15 K; 101.33 kPa; Liquid; Abbe refractometer
[2] = Liquid; for mass density: 293.15 K, 101.33 kPa, Vibrating tube method

Row | Compound | refractive index [1] | mass density [2] [kg/m3] | vapor or sublimation pressure ([2]; 348.15 K) [kPa] | vapor or sublimation pressure ([2]; 363.15 K) [kPa] | vapor or sublimation pressure ([2]; 382.79 K) [kPa] | vapor or sublimation pressure ([2]; 383.15 K) [kPa] | vapor or sublimation pressure ([2]; 405.54 K) [kPa] | vapor or sublimation pressure ([2]; 429.34 K) [kPa] | vapor or sublimation pressure ([2]; 356.74 K) [kPa] | vapor or sublimation pressure ([2]; 376.95 K) [kPa] | vapor or sublimation pressure ([2]; 398.79 K) [kPa]
1 | CC1=CCC2CC1C2(C)C (stereo unspecified) [2-pinene] | 1.4657 ± 0.0003 | 858.06 ± 0.16 | 7.35 ± 0.33 | 13.32 ± 0.35 | 26.66 ± 0.34 | 26.98 ± 0.4 | 53.33 ± 0.41 | 101.32 ± 0.5 | – | – | –
2 | CCCCCCCC [octane] | 1.3973 ± 0.0003 | 702.44 ± 0.18 | 19.31 ± 0.37 | 33.52 ± 0.42 | – | 64.25 ± 0.52 | – | – | 26.66 ± 0.3 | 53.33 ± 0.36 | 101.3 ± 0.5
